{"source": "patent US12448393B2", "about": "“Use of novel compound, for preventing, improving or treating amyotrophic lateral sclerosis” (PRG S&TECH INC., priority 2019, dated 2025)", "key": {"misfolded SOD1 [1]": {"tested_on": "misfolded SOD1", "test": "Dot blot analysis of misfolded SOD1 in transfected cell lysates", "assay_type": "cell-based, human", "conditions": "lysates of cells transfected with WT- or mutant SOD1; FIG. 5D", "description": "(§1) To detect misfolded SOD1 expression, cells transfected with SOD1 vector were treated with the compounds for 24 hours. After reaction, the cells were lysed with a lysis buffer without surfactant, and then cell lysate was fixed on a nitrocellulose membrane using a Bio-Dot SF Microfiltration apparatus (Bio-Rad Laboratories, Hercules, CA). In the case of peptide reaction, SOD1 recombinant proteins were reacted with the compounds for 1 hour, and then samples were loaded onto membrane. Each membrane was washed with TBS and blocked with 3% skim milk to prevent non specific reaction. After blocking, the membrane was reacted with the misfolded SOD1 or Actin antibody (1:8,000 in TBST including 1% skim milk) for 30 minutes, and then with a secondary antibody (goat anti-mouse IgG-horseradish peroxidase, 1:50,000 in 1% skim milk blocking buffer) for 30 minutes. Antibodies reacted to proteins were detected by ECL and X-ray film exposure. Actin was used as a loading control."}, "misfolded SOD1 [2]": {"target": "misfolded SOD1 (Homo sapiens, UniProt P00441, G94A)", "sequence (P00441 2-154 G94A)": "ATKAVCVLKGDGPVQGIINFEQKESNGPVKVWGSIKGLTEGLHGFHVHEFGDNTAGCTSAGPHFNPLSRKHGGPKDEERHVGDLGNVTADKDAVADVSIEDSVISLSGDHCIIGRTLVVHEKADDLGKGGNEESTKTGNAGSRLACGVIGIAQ", "test": "Dot blot analysis of misfolded SOD1 in transfected cell lysates", "assay_type": "cell-based", "conditions": "G93A-transfected cell lysates; FIG. 5E", "description": "as §1"}, "SOD1-G93A": {"target": "T1, SOD1-G93A (Homo sapiens, UniProt P00441, G94A)", "T1 construct": "GST (TEV site) (N); made in house; host or cells: Escherichia coli BL21 (DE3)", "T1 sequence (P00441 whole entry G94A)": "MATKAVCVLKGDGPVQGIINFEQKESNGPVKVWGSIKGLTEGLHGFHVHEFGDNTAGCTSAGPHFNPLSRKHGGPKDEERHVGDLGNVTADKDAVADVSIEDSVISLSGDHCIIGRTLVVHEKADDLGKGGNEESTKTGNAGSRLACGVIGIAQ", "test": "Dot blot analysis of recombinant SOD1 reacted with compound", "assay_type": "biochemical", "conditions": "FIG. 5F", "description": "To prepare recombinant proteins, human SOD1 (WT, A4V, G37R, G85R, G93A) was added to EcoRI and HindIII sites of pGEX-TEV vector, an improved vector made by adding a TEV protease cleavage site to pGEX-4T1 (Invitrogen). The recombinant proteins were expressed as GST-fusion proteins in Escherichia coli (E. coli) strain BL21 (DE3). The proteins were purified by glutathione-affinity chromatography.\nas §1"}, "SOD1^G93A-Tg mice": {"tested_on": "SOD1^G93A-Tg mice", "test": "In vivo drug treatment of ALS model mice (grip strength, behaviour, histology, survival)", "design": "species or system mouse", "description": "An experiment was performed in a facility approved by the Association for Laboratory Animal Care Assessment and Accreditation in accordance with the animal policy approved by Busan National University. B6SJL-Tg (SOD1^G93A) mice were purchased from Jackson Laboratory (Stock No: 002726). All mice were maintained under temperature and light-controlled conditions (20˜23° C., light-dark cycle 12 hr-12 hr) and were provided with sterile food and water.\nVehicle (DMSO) and SLC-B036 (10 mg/kg, 20 mg/kg) were administered to 12-week-old or 14-week-old SOD1^G93A mice via intraperitoneal injection twice weekly for 6 weeks. Control mice were treated under the same conditions. For histological analysis, mice were sacrificed at 18 weeks. After dissection of mice, spinal cord was fixed with 4% paraformaldehyde for 48 hours according to basic tissue processing procedures, and embedded in a paraffin block. An embedded tissue (cervical region of the spinal cord) was cut into 5 μm with a Leica microtome, and transferred to an adhesive-coated slide (Marienfeld laboratory glassware, Germany). After deparaffinization and rehydration, the slide was stained with hematoxylin and eosin to determine the number of spinal nerves.\nFor behavioral experiment, grip strength was checked every 2 weeks using a grip strength meter. The mice were allowed to grasp a tension bar with their forelimbs, and then their tails were slowly pulled until they released the bar. To observe motility, respiration, and quadriplegia of the mice, image analysis was performed at the end of administration (18-20 weeks)."}}, "note": "“Also recorded” adds a separate entry of the source."}
{"compound": "COc1cc(/C=C/C(=O)O[C@H]2Cc3cc4ccc(=O)oc4cc3OC2(C)C)ccc1O", "note": "[PRG-A-01, (S)-8,8-dimethyl-2-oxo-7,8-dihydro-2H,6H-pyrano[3,2-g]chromen-7-yl (E)-3-(4-hydroxy-3-methoxyphenyl) acrylate]", "values": [{"measurement": "misfolded SOD1, dot blot", "setting": "misfolded SOD1 [1]", "result": "reduces misfolding formation of SOD1; also recorded: band intensity clearly decreased"}, {"measurement": "misfolded SOD1, dot blot, according to doses", "setting": "misfolded SOD1 [2]", "result": "dose-dependent decrease in misfolded SOD1"}, {"measurement": "recognition of mutant SOD1 by misfolding-specific antibody", "setting": "SOD1-G93A", "result": "inhibits misfolding of mutant SOD1; also recorded: antibody specific for misfolding did not recognize mutant SOD1"}, {"measurement": "dose dependence of effect on grip strength", "setting": "SOD1^G93A-Tg mice; 20 mg/kg more effective than 10 mg/kg, FIGS. 8A and 8B", "result": "dose-dependent effect"}, {"measurement": "effects in ALS model mice", "setting": "SOD1^G93A-Tg mice; FIGS. 11A and 11B, summary statements", "result": "protective effect against muscle weakness and movement disorder"}, {"measurement": "lifespan extension", "setting": "SOD1^G93A-Tg mice; Kaplan-Meier survival, FIG. 8D", "result": 10, "unit": "days"}, {"measurement": "In vivo", "setting": "SOD1^G93A-Tg mice; Table 1, ALS model mice", "result": "Effect ○"}, {"measurement": "muscle strength compared to wild-type mice", "setting": "SOD1^G93A-Tg mice; i.p. twice a week, administration from 12 weeks of age, grip strength, FIG. 7B", "result": "about 70%"}, {"measurement": "viability of cervical spinal nerves, histological analysis", "setting": "SOD1^G93A-Tg mice; spinal cord, H&E, FIG. 7D", "result": "intraspinal nerves were maintained and high"}, {"measurement": "muscle function, late treatment", "setting": "SOD1^G93A-Tg mice; starting at 14 weeks of age, forelimb grip strength, FIGS. 8A and 8B", "result": "good effect on muscle function"}]}
